Where a SMILES comes first, the peptide text is derived from it. Bridges are numbered along the chain shown (N, C = ends). [ ]: non-standard residue; d: D form. hArg = N=C(N)NCCCC[C@H](N)C(=O)O; Mpa = O=C(O)CCS
Experiments:
[1] = system: endothelial tube formation in co-cultures of ECFCs and ADSCs treated with VEGF; test: cells; format: cell-based, human; details: for IC50: read-out: VEGF_ADSC\ECFC Angio CD31 TubeArea summarized IC50
[2] = system: ECFC/ADSC co-culture cell nuclei number; details: for IC50: read-out: VEGF_ADSC\ECFC Angio Hoechst NucArea summarized IC50

| SMILES | VEGF_ADSC\ECFC Angio CD31 TubeArea IC50/EC50 [1] [µM] | VEGF_ADSC\ECFC Angio Hoechst NucArea IC50/EC50 [2] [µM] | further results |
| --- | --- | --- | --- |
| CC(=O)C[C@H]1[C@H](O[C@H]2[C@H](OC(C)C(=O)N[C@@H](C)C(=O)N[C@H](CCC(=O)N[C@@H](CCCCN)C(=O)N[C@H](C)C(=O)O)C(N)=O)[C@@H](NC(=O)O)C(O)O[C@@H]2CO)O[C@H](CO)[C@@H](O)[C@@H]1O (stereo partly shown) [NCGC00181761-01] | > 10 | > 10 | – |
| Cc1ccc(Nc2c(F)cccc2Cl)c(CC(=O)O)c1 [NCGC00181795-02] | > 10 | > 10 | – |
| CN(C)CCOC1=Cc2ccccc2Sc2ccc(Cl)cc21 [NCGC00182081-04] | > 10 | > 10 | – |
| COC(=O)N[C@H](C(=O)N[C@@H](Cc1ccccc1)[C@@H](O)CN(Cc1ccc(-c2ccccn2)cc1)NC(=O)[C@@H](NC(=O)OC)C(C)(C)C)C(C)(C)C [NCGC00182552-02] | > 10 | > 10 | – |
| O=C1CC[C@H](C(=O)N2CCCCC2)N1 [NCGC00182992-01] | > 10 | > 10 | – |
| CC(=O)c1ccc(OCC(=O)N2CCCCC2)cc1 [NCGC00183022-01] | > 10 | > 10 | – |
| CCOC(=O)NC(C)(C)Cc1ccc(Cl)cc1 [NCGC00183835-01] | – | – | IC50 [1]: > 10 µM; IC50 [2]: > 10 µM |
| O=C1NC2CCCCN2C12CCN(CCCN1c3ccccc3CCc3ccc(Cl)cc31)CC2 (stereo not shown) [NCGC00183853-01] | > 10 | > 10 | – |
| CCCCc1oc2ccc(NS(C)(=O)=O)cc2c1C(=O)c1ccc(OCCCN(CCCC)CCCC)cc1 [NCGC00188863-02] | 2.754 | 7.561 | – |
| CCN[C@@H](C)Cc1cccc(C(F)(F)F)c1 [NCGC00247710-02] | > 10 | > 10 | – |
| Cc1[nH]cnc1C[C@H]1CCc2c(C)c3ccccc3n2C1=O [NCGC00249415-01] | > 10 | > 10 | – |
| CC(C(O)c1ccccc1)N(C)C/C=C/c1ccccc1 (stereo not shown) [NCGC00249896-01] | > 10 | > 10 | – |
| Cc1ccc(C(=O)Oc2ccc(C(O)CNC(C)(C)C)cc2OC(=O)c2ccc(C)cc2)cc1 (stereo not shown) [NCGC00253593-01] | > 10 | > 10 | – |
| Cc1onc(-c2c(Cl)cccc2Cl)c1C(=O)Cl [NCGC00253649-01] | > 10 | > 10 | – |
| COc1cc(S(N)(=O)=O)cc(C(=O)O)c1OC [NCGC00253657-01] | > 10 | > 10 | – |
| O=C(O)C1CCC1 [NCGC00253667-01] | – | – | IC50 [1]: > 10 µM; IC50 [2]: > 10 µM |
| COc1ccc([C@@H]2Sc3ccccc3NC(=O)[C@@H]2O)cc1 [NCGC00253672-01] | > 10 | > 10 | – |
| C/C=C(/C(=C/C)c1ccc(OC(C)=O)cc1)c1ccc(OC(C)=O)cc1 [NCGC00253696-01] | – | – | IC50 [1]: > 10 µM; IC50 [2]: > 10 µM |
| COc1ccccc1N1CCN(CC(O)COc2cc(OC)c(OC)c(OC)c2)CC1 (stereo not shown) [NCGC00253761-01] | > 10 | > 10 | – |
| CC[C@]12CCCN3CCc4c(n(c5ccccc45)C(=O)C1)[C@@H]32 [NCGC00262533-02] | > 10 | > 10 | – |
| O=C1CC(c2ccc(Cl)cc2)CC(=O)N1 [NCGC00262922-01] | – | – | IC50/EC50, VEGF_ADSC\ECFC Angio CD31 TubeArea (assay number 2) [1]: > 10 µM; IC50/EC50, VEGF_ADSC\ECFC Angio Hoechst NucArea (assay number 3) [2]: > 10 µM |
| NC(=O)[C@@H]1CSSCCC(=O)N[C@@H](CCCCN=C(N)N)C(=O)NCC(=O)N[C@@H](CC(=O)O)C(=O)N[C@@H](Cc2c[nH]c3ccccc23)C(=O)N2CCC[C@H]2C(=O)N1 [NCGC00263524-01] ([Mpa][hArg]GDWPC-NH2; disulfide 1-7) | > 10 | > 10 | – |
| CCOC(=O)C1=C(C)NC(C)=C(C(=O)OCC)C1c1ccccc1/C=C/C(=O)OC(C)(C)C [NCGC00263529-01] | – | – | IC50/EC50, VEGF_ADSC\ECFC Angio CD31 TubeArea (assay number 2) [1]: > 10 µM; IC50/EC50, VEGF_ADSC\ECFC Angio Hoechst NucArea (assay number 3) [2]: > 10 µM |

— paper PMC4503722, “Novel Phenotypic Outcomes Identified for a Public Collection of Approved Drugs from a Publicly Accessible Panel of Assays” (PLoS ONE, 2015)
